# Source: patent US20240293370A1, “USE OF COMPOUNDS IN INHIBITING OR KILLING MITES AND TREATING XEROPHTHALMIA” (Precvision Biotechnologies LTD., priority 2021, published 2024)
# Structures can show the parent of a compound that is named as a salt.
# Tested on: Demodex
# Assay: Acaricidal experiment: Demodex culture in vitro, survival time of mites
# Details: adult Demodex, 20° C., 96% humidity
# Method: This study strictly followed the ethical principles of the Declaration of Helsinki, and Ethical Guidelines for Biomedical Research Involving Human Subjects. In this study, Demodex was collected from patients diagnosed with ocular Demodex infection. Those meeting the inclusion criteria would be enrolled after an informed conversation and signing an informed consent form.
# Demodex detection was performed according to the conventional eyelash microscopic examination method. 3 eyelashes were extracted from each eyelid, and a total of 12 eyelashes were extracted. The extracted eyelashes were immediately placed on a glass slide, and one piece of each three eyelashes was placed under an ordinary light microscope for observation. Demodex at all stages were counted and classified according to morphology (specific criteria were: Demodex brevis at a head-to-body ratio of 1:1 and Demodex folliculorum at a head-to-body ratio of 1:3 to 1:4). Only adults that were fully exposed to the field of view were taken as subjects (larvae and eggs were not considered as subjects since they were more fragile in early life).
# Based on the above detection of Demodex, 50 μl of different solutions were added to each slide, and the survival of the worms was observed every 1 hour. The death was judged by observing whether the worms were active (body, limbs, or the like) under a microscope. Two skilled Demodex-related experimenters observed and judged separately during the experiment. If the judgment results were different, the third skilled experimenter was asked to make an independent judgment. The culture in vitro was performed in a climate chamber at 20° C. and 96% humidity. Slides were transported in a humid chamber under observation and the solution was added appropriately to ensure high humidity before vacuoles appeared on solution evaporation.
structure (smiles),measurement,setting,value
N[C@H]1C[C@@H]1c1ccccc1 [Hydrochloride salt of V-C],Average survival time of mites,concentration 1 mg/mL in 0.9% NaCl solution,7.44 ± 6.07 h
same,Average survival time of mites,concentration 3 mg/mL in 0.9% NaCl solution,5.66 ± 0.91 h
same,Average survival time of mites,concentration 10 mg/mL in 0.9% NaCl solution,2.89 ± 1.08 h
same,Average survival time of mites,concentration 30 mg/mL in 0.9% NaCl solution,2.24 ± 1.32 h
